This passage reports TGI and GI50 results from PubChem BioAssay (NCI).

Among the test systems are 786-0 renal; CAKI-1 renal; HL-60(TB) leukemia; KM12 colon; NCI-H522 lung; OVCAR-5 ovarian; SK-MEL-5 melanoma; UACC-257 melanoma; BT-549 breast; NCI/ADR-RES ovarian.
What all share (assay): NCI-60 cell line screen, 48 h

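Compound exposure: 48 hours, 5 concentrations, 96-well plates. Abbreviation: GI50, concentration required for 50% inhibition of growth. TGI marks complete inhibition of growth.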

Take `Cc1cccc(C2=NC(C)(C)C(C)(C)N=C2c2cccc(C)n2)n1`: the TGI with 786-0 renal, with CAKI-1 renal, with HL-60(TB) leukemia, with KM12 colon, in the test with NCI-H522 lung and in the test with OVCAR-5 ovarian was > 100 µM in each case. Moreover, the TGI in the test with SK-MEL-5 melanoma and in the test on UACC-257 melanoma was > 100 µM each time.
On to `[N-]=[N+]=CC(=O)OCC1SCCCS1`, for which the TGI in the test with 786-0 renal, in the test on BT-549 breast, in the test on CAKI-1 renal, in the test with HL-60(TB) leukemia, in the test on KM12 colon and in the test on NCI-H522 lung was > 100 µM in each case. Besides, the TGI in the test with OVCAR-5 ovarian, in the test with SK-MEL-5 melanoma and with UACC-257 melanoma was > 100 µM throughout.
In the case of `O=C(CCCCCCCCC(=O)N1C(=O)CC(=O)N(c2cccc(Cl)c2)C1=S)N1C(=O)CC(=O)N(c2cccc(Cl)c2)C1=S`, the TGI in the test on 786-0 renal is > 100 µM; in the test on BT-549 breast it was > 100 µM; in the test with CAKI-1 renal it was > 100 µM; in the test on KM12 colon it was > 100 µM; in the test with NCI-H522 lung, 71.1 µM; in the test with NCI/ADR-RES ovarian it was 96.9 µM. The TGI in the test on OVCAR-5 ovarian, with SK-MEL-5 melanoma and with UACC-257 melanoma was > 100 µM throughout.
As to `C=C1C(=O)OCC2C(C(=O)O)=CC3C(C)C(C)=CC123` (centres undefined), the TGI in the test with CAKI-1 renal was 62.6 µM; in the test with HL-60(TB) leukemia it was 26 µM; with KM12 colon it was 31.2 µM; with NCI-H522 lung, 8.18 µM; in the test with NCI/ADR-RES ovarian, 27.3 µM; with OVCAR-5 ovarian it was 66.3 µM. The TGI turned out to be 27.3 µM with SK-MEL-5 melanoma and 46 µM in the test on UACC-257 melanoma.
On to `O=C(NC1CCN(Cc2ccccc2)CC1)c1cc2nc(-c3ccc(Cl)s3)cc(C(F)(F)F)n2n1`, for which the GI50 with BT-549 breast was > 100 µM; in the test on CAKI-1 renal it was > 100 µM; in the test on NCI-H522 lung, 8.45 µM; with NCI/ADR-RES ovarian, > 100 µM; in the test with SK-MEL-5 melanoma it was 6.34 µM. Also, the TGI in the test on BT-549 breast, with CAKI-1 renal, with NCI-H522 lung, in the test on NCI/ADR-RES ovarian and in the test with SK-MEL-5 melanoma was > 100 µM each time.
On to `C1CCC(OC2CSC2)OC1` (centres undefined), for which the TGI in the test on KM12 colon, in the test on NCI-H522 lung, in the test with NCI/ADR-RES ovarian, in the test with SK-MEL-5 melanoma and in the test on UACC-257 melanoma was > 100 µM each time.
`Cc1cccc(NC(=O)C(=O)C(C(=O)c2ccccc2F)C2OC(=O)c3ccccc32)c1Cl` (centres undefined): the TGI in the test on CAKI-1 renal is > 100 µM; in the test on HL-60(TB) leukemia, 56.2 µM; in the test on KM12 colon it was 94.5 µM; in the test on NCI-H522 lung, 79.9 µM; with OVCAR-5 ovarian it was > 100 µM; in the test with SK-MEL-5 melanoma it was > 100 µM. Also, the TGI in the test with UACC-257 melanoma is > 100 µM.
Regarding `CCCCOP1(=O)C=C(C)C(=C(Cl)Cl)C(C)=C1` (centres undefined), the TGI is 53 µM in the test on 786-0 renal; 27.8 µM in the test with CAKI-1 renal; 8.26 µM with HL-60(TB) leukemia; 4.45 µM with KM12 colon; 11 µM in the test with NCI-H522 lung; > 100 µM in the test with OVCAR-5 ovarian. The TGI with SK-MEL-5 melanoma was > 32.9 µM; in the test with UACC-257 melanoma it was 11.5 µM.
Turning to `c1ccc2c(c1)nc(NC1CCCC1)c1[nH]c(C3CCCC3)nc12`, the TGI in the test on 786-0 renal turned out to be 20.7 µM; with HL-60(TB) leukemia, 6.82 µM; with KM12 colon, 21.3 µM; in the test on NCI-H522 lung, 36.9 µM; in the test on OVCAR-5 ovarian, 61.1 µM; in the test on SK-MEL-5 melanoma, 17.1 µM. For the same compound, the TGI in the test with UACC-257 melanoma came out at 11.1 µM.
For the compound `O=[Se](=O)c1ccccc1.O=[Se](=O)c1ccccc1.[Cu]`, the GI50 in the test on CAKI-1 renal is 22.8 µM; in the test on HL-60(TB) leukemia it was 6.51 µM; with KM12 colon, 9.38 µM; in the test on NCI-H522 lung, 17.3 µM; in the test on NCI/ADR-RES ovarian, 10.5 µM; in the test with OVCAR-5 ovarian, 23 µM. In addition, the figures for the GI50 in the test on SK-MEL-5 melanoma and in the test with UACC-257 melanoma were 19 µM and 16 µM, respectively. Further, the TGI was 38.9 µM with CAKI-1 renal; 15.4 µM in the test on HL-60(TB) leukemia; 24.6 µM in the test on KM12 colon; 31.5 µM in the test on NCI-H522 lung; 30 µM in the test with NCI/ADR-RES ovarian; 37.9 µM in the test on OVCAR-5 ovarian. The TGI in the test on SK-MEL-5 melanoma amounted to 34.9 µM; with UACC-257 melanoma, 30.4 µM.
With `C#CC(F)(F)[C@]1(O)CC[C@H]2[C@@H]3CCC4=CC(=O)CCC4=C3[C@@H](c3ccc(C(C)=O)cc3)C[C@@]21C`, the GI50 is 15.5 µM in the test on BT-549 breast; 0.123 µM in the test on KM12 colon; 0.0167 µM in the test with NCI-H522 lung; 13.8 µM in the test on NCI/ADR-RES ovarian; 28.3 µM with OVCAR-5 ovarian; 8.47 µM in the test on SK-MEL-5 melanoma. The GI50 in the test on UACC-257 melanoma was 21.1 µM. In addition, the TGI in the test with BT-549 breast is 55.2 µM; with KM12 colon, 52.9 µM; in the test with NCI-H522 lung, 0.0331 µM; in the test with NCI/ADR-RES ovarian it was 59 µM; with OVCAR-5 ovarian, > 100 µM; in the test with SK-MEL-5 melanoma it was 21.6 µM. This compound also had a TGI in the test on UACC-257 melanoma of 88.5 µM.
In the case of `CCOC(=O)CNC(=O)C(C)NC(=O)C(NC(=O)CC(c1ncc[nH]1)c1ncc[nH]1)C(C)CC` (centres undefined), the TGI in the test on 786-0 renal, in the test on CAKI-1 renal, with HL-60(TB) leukemia, in the test with KM12 colon, with NCI-H522 lung and in the test with NCI/ADR-RES ovarian was > 100 µM each time. Also, the TGI with OVCAR-5 ovarian and with UACC-257 melanoma was > 100 µM in each case.
With `COP(=O)(OC)C(Cc1c[nH]c2ccccc12)NC(=O)OCc1ccccc1` (centres undefined), the TGI in the test with CAKI-1 renal, in the test on HL-60(TB) leukemia, in the test on NCI-H522 lung, with NCI/ADR-RES ovarian, with OVCAR-5 ovarian and with SK-MEL-5 melanoma was > 100 µM in each case. The TGI with UACC-257 melanoma was > 100 µM.
Turning to `C=C(C)C(=O)[C@@]12C(=O)[C@@H](C)CC[C@H]1[C@H](C)C[C@@H]2C=C(C)C`, the TGI with 786-0 renal is 42.4 µM; with CAKI-1 renal, 99.5 µM; in the test on KM12 colon, 56.4 µM; with NCI-H522 lung, 27.7 µM; in the test on NCI/ADR-RES ovarian, 83.5 µM; in the test with OVCAR-5 ovarian, 55.2 µM. The TGI in the test on SK-MEL-5 melanoma came out at 45.1 µM; with UACC-257 melanoma, 33.5 µM.
